One assay has as its target T1, RXRβ (Mus musculus, UniProt P28704).
T1 construct: expressed in transfected cells
T1 sequence (P28704 1-520): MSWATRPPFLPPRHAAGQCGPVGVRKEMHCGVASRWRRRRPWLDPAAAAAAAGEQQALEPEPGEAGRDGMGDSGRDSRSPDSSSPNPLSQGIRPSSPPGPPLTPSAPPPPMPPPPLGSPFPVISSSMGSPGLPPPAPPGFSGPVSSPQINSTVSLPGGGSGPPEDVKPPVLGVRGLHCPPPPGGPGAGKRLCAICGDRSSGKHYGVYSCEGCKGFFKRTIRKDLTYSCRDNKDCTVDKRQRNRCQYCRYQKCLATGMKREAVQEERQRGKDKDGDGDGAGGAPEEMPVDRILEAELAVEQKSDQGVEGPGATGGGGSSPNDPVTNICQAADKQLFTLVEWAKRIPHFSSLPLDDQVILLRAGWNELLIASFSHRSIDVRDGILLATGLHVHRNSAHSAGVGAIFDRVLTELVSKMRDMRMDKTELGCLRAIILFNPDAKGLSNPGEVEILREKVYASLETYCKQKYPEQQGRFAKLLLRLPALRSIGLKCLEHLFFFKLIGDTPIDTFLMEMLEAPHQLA
Description: holoreceptor transactivation assay, RXRβ. Format: cell-based. To be noted: for pEC50: holoreceptor assay, read-out: RXR Trans EC50 β; for Emax: relative to 10^-6 M cyclopropyl penta-2,4-dienoic acid reference, read-out: % efficacy, RXRβ transactivation. An excerpt: (§1) Other assays described below, measure the ability of the compounds of the present invention to bind to, and/or activate various retinoid receptor subtypes. When in these assays a compound binds to a given receptor subtype and activates the transcription of a reporter gene through that subtype, then the compound is considered an agonist of that receptor subtype. […] In the below described assays the ability of the compounds to bind to RARα, RARβ, RARγ, RXRα, RXRβ and RXRγ receptors, and the ability or inability of the compounds to activate transcription of a reporter gene through these receptor subtypes can be tested. […] However, some of the compounds of the invention may behave as retinoid antagonists or partial antagonists and/or as inverse agonists. Because of the complex distribution of the different retinoid receptors in various organs of the mammalian body partial agonists and partial antagonists and compounds which have the characteristics of both may lend themselves to particularly useful therapeutic applications and may avoid serious side effects of conventional retinoid drugs.
(§2) A holoreceptor transactivation assay and a ligand binding assay which measure the antagonist/agonist like activity of the compounds of the invention, or their ability to bind to the several retinoid receptor subtypes, respectively, are described in published PCT Application No. WO WO93/11755 (particularly on pages 30-33 and 37-41) published on Jun. 24, 1993, the specification of which is also incorporated herein by reference. A detailed experimental procedure for holoreceptor transactivations has been described by Heyman et al. Cell 68, 397-406, (1992); Allegretto et al. J. Biol. Chem. 268, 26625-26633, and Mangelsdorf et al. The Retinoids: Biology, Chemistry and Medicine, pp 319-349, Raven Press Ltd., New York, which are expressly incorporated herein by reference. The results obtained in this assay are expressed in EC50 numbers, as they are also in the chimeric receptor transactivation assay. The results of ligand binding assay are expressed in Kd numbers. (See Cheng et al. Biochemical Pharmacology Vol. 22 pp 3099-3108, expressly incorporated herein by reference.)
(§3) Table 1 discloses the activity of certain exemplary compounds of the invention in the above-described chimeric receptor transactivation assay, holoreceptor transactivation assay and a ligand binding assays. Particularly, the transactivation data pertaining to RAR receptors were obtained in the chimeric assay, and the data pertaining to transactivation of RXR receptors were obtained in the holoreceptor transactivation assay.

A further assay deals with T2, RARγ (Homo sapiens, UniProt P13631).
T2 sequence (P13631 1-454): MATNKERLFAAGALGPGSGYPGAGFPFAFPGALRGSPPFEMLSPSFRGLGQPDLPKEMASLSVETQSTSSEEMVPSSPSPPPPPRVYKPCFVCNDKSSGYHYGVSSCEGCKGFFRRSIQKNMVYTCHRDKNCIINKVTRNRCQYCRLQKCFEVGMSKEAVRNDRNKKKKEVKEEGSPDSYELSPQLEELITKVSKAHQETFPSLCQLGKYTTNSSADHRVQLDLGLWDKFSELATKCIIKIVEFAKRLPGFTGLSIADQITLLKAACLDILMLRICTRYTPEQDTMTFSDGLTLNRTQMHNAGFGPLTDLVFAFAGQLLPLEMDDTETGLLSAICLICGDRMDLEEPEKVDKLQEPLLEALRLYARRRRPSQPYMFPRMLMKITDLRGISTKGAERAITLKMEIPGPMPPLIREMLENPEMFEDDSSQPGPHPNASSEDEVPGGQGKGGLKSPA
Briefly: ligand binding assay, RARγ. The note with it: read-out: RAR Bind Ki γ.
Description: as §1, §2, §3

The next assay concerns the target T3, RXRα (Homo sapiens, UniProt P19793).
T3 construct: expressed in transfected cells
T3 sequence (P19793 1-462): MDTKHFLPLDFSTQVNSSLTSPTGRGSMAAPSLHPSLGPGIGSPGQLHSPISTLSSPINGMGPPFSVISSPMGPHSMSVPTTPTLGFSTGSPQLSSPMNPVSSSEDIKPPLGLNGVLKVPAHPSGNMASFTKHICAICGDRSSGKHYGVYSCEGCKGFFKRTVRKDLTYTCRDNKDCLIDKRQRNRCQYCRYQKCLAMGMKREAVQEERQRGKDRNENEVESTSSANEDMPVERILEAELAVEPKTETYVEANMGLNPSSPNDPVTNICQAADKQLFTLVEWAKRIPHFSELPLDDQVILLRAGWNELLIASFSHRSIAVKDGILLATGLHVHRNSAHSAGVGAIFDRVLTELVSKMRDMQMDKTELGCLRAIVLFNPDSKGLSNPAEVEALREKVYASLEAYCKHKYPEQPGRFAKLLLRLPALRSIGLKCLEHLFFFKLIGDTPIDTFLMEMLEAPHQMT
Briefly: ligand binding assay, RXRα. The note with it: read-out: RXR Bind Ki α.
Description: as §1, §2, §3

The target in another assay is T4, RXRγ (Homo sapiens, UniProt P48443).
T4 sequence (P48443 1-463): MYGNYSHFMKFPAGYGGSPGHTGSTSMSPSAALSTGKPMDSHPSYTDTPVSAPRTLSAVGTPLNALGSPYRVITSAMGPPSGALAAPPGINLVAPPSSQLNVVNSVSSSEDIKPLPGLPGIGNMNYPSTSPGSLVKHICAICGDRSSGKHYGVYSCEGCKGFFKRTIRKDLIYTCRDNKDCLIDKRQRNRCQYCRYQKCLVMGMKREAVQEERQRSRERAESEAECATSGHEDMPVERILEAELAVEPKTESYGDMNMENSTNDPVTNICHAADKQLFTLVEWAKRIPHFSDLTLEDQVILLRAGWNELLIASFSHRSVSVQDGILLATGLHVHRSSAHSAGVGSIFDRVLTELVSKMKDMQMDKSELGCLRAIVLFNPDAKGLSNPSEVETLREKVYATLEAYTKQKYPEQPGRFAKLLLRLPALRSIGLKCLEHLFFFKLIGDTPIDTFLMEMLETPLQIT
Description: ligand binding assay, RXRγ. To be noted: read-out: RXR Bind Ki γ.
Description: as §1, §2, §3

The text below walks through data of US6127382A, “Amines substituted with a tetrahydroquinolinyl group an aryl or heteroaryl group and an alkyl group, having retinoid-like biological activity” (Allergan Sales, Inc., priority 1999, dated 2000).

In general, pEC50 refers to the EC50 on a negative log10 scale, so that one unit is a factor of ten. What is called pKi is the Ki on a negative log10 scale, so that one unit is a factor of ten.

pEC50, pKi: −log10 of the molar value.

Consider `CCN(c1ccc(C(=O)O)cc1)c1cc2c(cc1C)C(C)(C)CCN2C(C)C` [Compound 52, 4-[-(1-Isopropyl-4,4,6-trimethyl-1,2,3,4-tetrahydro-quinolin-7-yl)ethylamino]-benzoic acid], for which, at RXRβ, the pEC50 is 8.70. Besides, at RXRβ, the Emax amounted to 96%. Also, the pKi is 5.00 on RARγ, 7.55 on RXRα and 7.42 at RXRγ.

For `CCN(c1ccc(C(=O)O)cc1)c1cc2c(cc1C)N(C(C)C)CCC2(C)C` [Compound 24, 4-[(1-Isopropyl-4,4,7-trimethyl-1,2,3,4-tetrahydroquinolin-6-yl)ethylamino]benzoic acid], the pEC50 on RXRβ was 6.00. Also, the Emax on RXRβ turned out to be 70%. The pKi is 5.04 at RARγ, 6.35 on RXRα and less than 6.00 at RXRγ.

Regarding `Cc1cc2c(cc1N(C)c1ccc(C(=O)O)cc1)N(C(C)C)CCC2(C)C` [Compound 51, 4-[(1-Isopropyl-4,4,6-trimethyl-1,2,3,4-tetrahydro-quinolin-7-yl)-methyl-amino]-benzoic acid], the pEC50 at RXRβ was 6.43. In addition, the Emax on RXRβ was found to be 119%. The pKi on RARγ was less than 5.00; at RXRα, 6.66; at RXRγ, 6.50.

With `Cc1cc2c(cc1N(C)c1ccc(C(=O)O)cc1)C(C)(C)CCN2C(C)C` [Compound 22, 4-[(1-Isopropyl-4,4,7-trimethyl-1,2,3,4-tetrahydroquinolin-6-yl)methylamino]benzoic acid], at RXRβ, the pEC50 was less than 6.00. Also, on RXRβ, the Emax came to 15%. Besides, the pKi is 5.77 at RARγ, 5.92 on RXRα and less than 6.00 at RXRγ.

With `CC(C)CCN(c1ccc(C(=O)O)cc1)c1ccc2c(c1)C(C)(C)CCN2C(C)C` [Compound 14, 4-[(1-Isopropyl-4,4-dimethyl-1,2,3,4-tetrahydroquinolin-6-yl)(3-methylbutyl)amino]-benzoic Acid], the negative logarithm of the Ki (pKi) is 5.82 on RARγ, 6.04 at RXRα and less than 6.00 at RXRγ.

As for `Cc1cc2c(cc1Nc1ccc(C(=O)O)cc1)N(C(C)C)CCC2(C)C` [Compound 50, 4-(1-Isopropyl-4,4,6-trimethyl-1,2,3,4-tetrahydro-quinolin-7-ylamino)-benzoic acid], on RXRβ, the pEC50 is 7.57. Also, at RXRβ, the Emax came out at 104%. Further, the pKi is less than 5.00 on RARγ, 6.49 on RXRα and less than 6.00 at RXRγ.

Consider `CCCN(c1ccc(C(=O)O)cc1)c1cc2c(cc1C)C(C)(C)CCN2C(C)C` [Compound 53, 4-[(1-Isopropyl-4,4,6-trimethyl-1,2,3,4-tetrahydro-quinolin-7-yl)-propyl-amino]-benzoic acid], for which the pEC50 on RXRβ is 8.70. Also, the Emax on RXRβ stood at 93%. Besides, the pKi was 4.77 on RARγ, 7.36 at RXRα and 7.02 at RXRγ.

In the case of `CC(C)N1CCC(C)(C)c2ccc(N(CC3CC3)c3ccc(C(=O)O)cc3)cc21` [Compound 40, 4-[(1-Isolpropyl-4,4-dimethyl-1,2,3,4-tetrahydroquinolin-7-yl)(cylopropylmethyl)amino]benzoic acid], at RXRβ, the pEC50 is 8.52. In addition, the Emax at RXRβ was found to be 93%. Also, the pKi at RARγ is 5.46; on RXRα it was 8.05; at RXRγ, 7.47.

Take `CC(C)N1CCC(C)(C)c2cc(N(C)c3ccc(C(=O)O)cc3)ccc21` [Compound 10, 4-[(1-Isopropyl-4,4-dimethyl-1,2,3,4-tetrahydroquinolin-6-yl)methylamino]benzoic Acid]: the pKi on RARγ is less than 5.00; at RXRα, less than 6.00; on RXRγ, less than 5.00.

As to `CCN(c1ccc(C(=O)O)cc1)c1ccc2c(c1)N(C(C)C)CCC2(C)C` [Compound 38, 4-[(1-Isopropyl-4,4-dimethyl-1,2,3,4-tetrahydroquinolin-7-yl)ethylamino]benzoic acid], the pEC50 at RXRβ is 8.15. Moreover, the Emax on RXRβ turned out to be 102%. The results for the pKi on RARγ, on RXRα and at RXRγ were 5.20, 8.00 and 7.57, respectively.

For `CCN(c1ccc(C(=O)O)cc1)c1ccc2c(c1)C(C)(C)CC(=O)N2C(C)C` [Compound 6, 4-[(1-Isopropyl-4,4-dimethyl-2-oxo-1,2,3,4-tetrahydroquinolin-6-yl)ethylamino]benzoic Acid], the pEC50 on RXRβ is less than 6.00. In addition, at RXRβ, the Emax is 40%. Also, the pKi at RARγ is less than 4.52; on RXRα, 5.05; at RXRγ it was less than 5.00.

Turning to `Cc1cc2c(cc1N(CC1CC1)c1ccc(C(=O)O)cc1)C(C)(C)CCN2C(C)C` [Compound 26, 4-[(1-Isopropyl-4,4,7-trimethyl-1,2,3,4-tetrahydro-quinolin-6-yl)(cyclopropylmethyl)amino]benzoic acid], the pEC50 on RXRβ is less than 6.00. The Emax at RXRβ came to 10%. The pKi on RARγ was 5.33; on RXRα it was 6.38; on RXRγ, 5.89.

On to `CC(C)CN(c1ccc(C(=O)O)cc1)c1ccc2c(c1)N(C(C)C)CCC2(C)C` [Compound 39, 4-[(1-Isopropyl-4,4-dimethyl-1 2,3,4-tetrahydroquinolin-7-yl)isobutylamino]benzoic acid], for which, at RXRβ, the pEC50 is 8.00. Also, on RXRβ, the Emax worked out at 97%. For the same compound, the pKi at RARγ was 5.55; at RXRα, 7.31; at RXRγ, 7.22.
